According to paper PMC9611727, “Optimization of a Novel Mandelamide-Derived Pyrrolopyrimidine Series of PERK Inhibitors” (Pharmaceutics, 2022):

What was measured:
FLT3 = target: T1, FLT3 (Homo sapiens, UniProt P36888); test: Radiometric in vitro kinase activity assay, FLT3; format: biochemical; conditions: wild-type FLT3, radiometric, up to 10 μM
T1 sequence (P36888 27-993): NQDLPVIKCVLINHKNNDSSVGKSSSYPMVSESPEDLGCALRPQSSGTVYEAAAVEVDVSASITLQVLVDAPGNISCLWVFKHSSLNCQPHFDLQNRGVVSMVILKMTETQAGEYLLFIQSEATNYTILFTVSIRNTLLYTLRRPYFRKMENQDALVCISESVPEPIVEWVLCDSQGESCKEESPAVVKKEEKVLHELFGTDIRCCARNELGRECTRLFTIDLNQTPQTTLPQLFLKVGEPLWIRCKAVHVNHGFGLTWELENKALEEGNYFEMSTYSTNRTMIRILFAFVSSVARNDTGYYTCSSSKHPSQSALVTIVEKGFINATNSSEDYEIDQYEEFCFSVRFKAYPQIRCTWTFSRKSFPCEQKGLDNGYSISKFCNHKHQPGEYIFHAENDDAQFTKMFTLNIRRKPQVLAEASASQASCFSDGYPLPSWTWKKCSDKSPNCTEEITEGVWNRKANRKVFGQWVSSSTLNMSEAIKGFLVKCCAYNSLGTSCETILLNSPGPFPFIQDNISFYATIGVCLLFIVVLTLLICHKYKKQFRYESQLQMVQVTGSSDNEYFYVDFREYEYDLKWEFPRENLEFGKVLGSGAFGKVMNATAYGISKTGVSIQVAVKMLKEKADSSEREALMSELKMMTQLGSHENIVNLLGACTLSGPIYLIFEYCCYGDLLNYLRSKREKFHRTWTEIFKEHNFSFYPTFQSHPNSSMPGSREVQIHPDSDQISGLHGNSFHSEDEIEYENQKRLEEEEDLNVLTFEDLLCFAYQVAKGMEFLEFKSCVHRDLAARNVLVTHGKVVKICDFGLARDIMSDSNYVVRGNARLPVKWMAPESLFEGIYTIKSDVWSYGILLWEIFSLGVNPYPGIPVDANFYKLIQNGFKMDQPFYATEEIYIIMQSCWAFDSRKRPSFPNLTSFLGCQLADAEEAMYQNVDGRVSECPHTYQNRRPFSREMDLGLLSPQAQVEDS

PKR = target: T2, PKR (Homo sapiens, UniProt P19525); test: ISR kinase cell-free biochemical assay (Carna), PKR; conditions: ATP 6 µM
T2 construct: purchased Carna 05-156
T2 sequence (P19525 whole entry): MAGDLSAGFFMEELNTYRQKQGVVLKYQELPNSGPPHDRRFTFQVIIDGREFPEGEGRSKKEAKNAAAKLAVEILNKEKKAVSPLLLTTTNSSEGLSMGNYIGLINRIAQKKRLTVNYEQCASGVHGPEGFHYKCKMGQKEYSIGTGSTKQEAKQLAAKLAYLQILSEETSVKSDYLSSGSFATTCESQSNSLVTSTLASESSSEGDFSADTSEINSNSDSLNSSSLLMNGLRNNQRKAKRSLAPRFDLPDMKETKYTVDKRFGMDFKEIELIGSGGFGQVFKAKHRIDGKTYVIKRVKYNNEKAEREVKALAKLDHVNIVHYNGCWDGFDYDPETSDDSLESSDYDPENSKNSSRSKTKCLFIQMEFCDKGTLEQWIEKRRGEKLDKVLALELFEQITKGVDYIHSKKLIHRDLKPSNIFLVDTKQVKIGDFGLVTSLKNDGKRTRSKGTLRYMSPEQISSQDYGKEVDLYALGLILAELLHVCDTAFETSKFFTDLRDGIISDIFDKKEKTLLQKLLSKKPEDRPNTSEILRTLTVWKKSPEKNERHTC
Description: (§1) In brief, 26 was dissolved in DMSO and serially diluted 3-fold to generate concentrations ranging from 10 µM to 0.2 nM in a 384-well plate using a TECAN EVO200 automated liquid handler. 10 nL stock solution was transferred into each well of a 384well assay plate by an Echo550 and an equivalent volume of DMSO was added to the control wells. To each assay well, recombinant protein was suspended in 20 µL reaction buffer (listed below) and incubated at 25 °C for 1.5 h while shaking at 1250 rpm. Following incubation, 10 µL of a FRET dilution buffer including 20 mM EDTA and 4 nM Tb-anti-peIF2a [pSer51] (Invitrogen, Cat# PV4815) was added to each well and incubated at 25 °C for 2 h while shaking at 600 rpm in the dark. Analysis was performed using an Envision Microplate Reader (PerkinElmer).

HRI = target: T3, HRI (Homo sapiens, UniProt Q9BQI3); test: ISR kinase cell-free biochemical assay (Carna), HRI; conditions: ATP 30 µM
T3 construct: purchased Carna 05-154
T3 sequence (Q9BQI3 whole entry): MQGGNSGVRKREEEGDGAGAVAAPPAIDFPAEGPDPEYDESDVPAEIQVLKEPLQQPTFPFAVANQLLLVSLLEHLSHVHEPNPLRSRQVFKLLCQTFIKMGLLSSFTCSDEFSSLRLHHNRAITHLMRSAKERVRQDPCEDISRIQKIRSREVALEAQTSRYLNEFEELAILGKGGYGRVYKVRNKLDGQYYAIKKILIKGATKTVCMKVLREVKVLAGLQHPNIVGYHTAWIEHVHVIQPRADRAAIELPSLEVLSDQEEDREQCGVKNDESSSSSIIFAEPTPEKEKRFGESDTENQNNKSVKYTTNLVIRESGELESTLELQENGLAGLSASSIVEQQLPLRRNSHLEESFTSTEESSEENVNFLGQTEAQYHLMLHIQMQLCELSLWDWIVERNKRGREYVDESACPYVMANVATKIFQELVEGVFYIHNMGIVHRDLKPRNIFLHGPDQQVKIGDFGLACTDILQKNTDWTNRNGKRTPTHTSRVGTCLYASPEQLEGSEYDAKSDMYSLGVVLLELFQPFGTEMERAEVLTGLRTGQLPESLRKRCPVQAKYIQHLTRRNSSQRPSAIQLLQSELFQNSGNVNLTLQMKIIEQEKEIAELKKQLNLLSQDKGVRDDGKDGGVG
Description: as §1

PERK = target: T4, PERK (Homo sapiens, UniProt Q9NZJ5); test: ISR kinase cell-free biochemical assay (Carna), PERK; conditions: ATP 8 µM
T4 construct: purchased Carna 05-155
T4 sequence (Q9NZJ5 563-1116 limits assumed): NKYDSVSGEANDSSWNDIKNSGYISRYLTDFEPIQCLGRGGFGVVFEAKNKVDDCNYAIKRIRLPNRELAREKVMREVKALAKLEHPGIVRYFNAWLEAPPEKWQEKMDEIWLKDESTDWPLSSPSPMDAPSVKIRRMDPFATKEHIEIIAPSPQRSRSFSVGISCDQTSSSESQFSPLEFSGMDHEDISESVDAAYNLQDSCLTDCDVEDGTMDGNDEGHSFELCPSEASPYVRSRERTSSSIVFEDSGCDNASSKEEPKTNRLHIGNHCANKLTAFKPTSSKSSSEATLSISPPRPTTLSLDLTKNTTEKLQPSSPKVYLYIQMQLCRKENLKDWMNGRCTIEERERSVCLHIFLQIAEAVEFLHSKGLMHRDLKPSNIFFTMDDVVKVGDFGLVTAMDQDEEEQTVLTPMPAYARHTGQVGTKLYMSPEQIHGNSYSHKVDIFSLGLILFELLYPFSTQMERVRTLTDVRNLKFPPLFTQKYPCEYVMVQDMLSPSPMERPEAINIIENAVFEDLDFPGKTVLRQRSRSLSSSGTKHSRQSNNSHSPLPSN
Description: as §1

p-STAT5 = test: FLT3-ITD downstream signaling, p-STAT5 western blot in MV4-11 cells; format: cell-based; conditions: Homo sapiens, normalized to Crenolanib, read-out: pSTAT5 IC50
Description: MV-4-11 and EoL-1 were plated at a density 20,000 cells/well in a 96 well plate. Cells were incubated with DMSO, 1 µM docetaxel, or an 8-pt, 2-fold dose response of 26 in quadruplicate. On day 3 and day 7, cells from DMSO-treated wells were counted and cells from all wells were split back so that the DMSO-treated wells matched the original seeding density. Cells were centrifuged in 96 well filter plates (Sigma) and resuspended in fresh compound-containing media.
On day 10, cells were incubated with alamarBlue™ HS Cell Viability Reagent (Invitogen) (10 µL of alamarBlue in a well of 90 µL media) for 2 hours at 37C/5% CO2. Fluorescence was measured on the EnVision Plate reader (Perkin Elmer) at an ex/em of 560/590 nm. Raw fluorescence values were normalized to positive and negative controls (DMSO, 1 µM docetaxel) to get a % viability. Replicates were averaged and dose responses were plotted on a 4 Parameter Logistic […]
MV-4-11 cells were plated in 6 well plates overnight in reduced serum media (IMDM + 0.5% FBS). The following day, compound or vehicle were added to the plate for a final DMSO concentration of 0.1% and incubated at 37 C for 2 hours.
Cells were washed with 1X PBS (Gibco 10010-023), and lysed in RIPA buffer with added inhibitors. Protein concentration was determined using a BCA assay (Thermo Scientific 23225). […]

## Cc1nc(N)c2c(-c3ccc(NC(=O)[C@H](O)c4cccc(C(F)(F)F)c4)cc3C)cn(C)c2n1 [Compound 26]
FLT3
  IC50: > 1000 nM
PKR
  IC50: > 10000 nM
HRI
  IC50: > 10000 nM
PERK
  IC50: 4.7 nM
p-STAT5
  IC50: 64 nM
